Test results published in PubChem BioAssay (NCI).
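The compound was tested at five concentrations on cells cultured in 96-well plates, with a 48-hour exposure period. TGI denotes the concentration required for complete inhibition of growth.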

Experiments:
Test in all cases: NCI-60 cell line screen, 48 h
[1] = tested on: MALME-3M melanoma
[2] = tested on: HCT-15 colon
[3] = tested on: HL-60(TB) leukemia
[4] = tested on: M14 melanoma
[5] = tested on: ACHN renal
[6] = tested on: SK-MEL-2 melanoma
[7] = tested on: SF-539 CNS
[8] = tested on: COLO 205 colon
[9] = tested on: CAKI-1 renal
[10] = tested on: UACC-62 melanoma
[11] = tested on: HT29 colon
[12] = tested on: KM12 colon
[13] = tested on: LOX IMVI melanoma
[14] = tested on: MDA-N
[15] = tested on: PC-3 prostate
[16] = tested on: SNB-19 CNS
[17] = tested on: MDA-MB-435

SMILES	TGI [1]	TGI [2]	TGI [3]	TGI [4]	TGI [5]	TGI [6]	TGI [7]	TGI [8]	TGI [9]	TGI [10]	TGI [11]	TGI [12]	TGI [13]	TGI [14]	TGI [15]	TGI [16]	TGI [17]
O=c1cc(-c2ccccc2)[nH]c2cc(F)cc(F)c12	79.4 µM	> 100 µM	> 100 µM	> 100 µM	> 100 µM	84.4 µM	85.5 µM	38.9 µM	> 100 µM	63.9 µM	> 100 µM	> 100 µM	> 100 µM				
COc1ccc2oc(S(=O)(=O)N3CC(CCl)c4ccc(N)cc43)cc2c1 (configuration not stated)	> 100 µM	> 23.9 µM	0.454 µM	> 100 µM	> 94.6 µM	> 100 µM	> 41.4 µM	14.9 µM	> 86.3 µM	> 100 µM	10.1 µM	6.02 µM	> 53.1 µM	> 100 µM	> 100 µM	> 100 µM	
COc1ccc(/C=C2\C[C@H]3[C@@H]4CCC5=C/C(=N/O)CC[C@]5(C)[C@H]4CC[C@]3(C)\C2=N\O)cc1	> 100 µM	> 100 µM		57.7 µM	98.3 µM	72.4 µM		43.9 µM	> 100 µM	> 100 µM	45.3 µM	> 100 µM	> 100 µM	> 100 µM	> 100 µM	> 100 µM	> 100 µM
CC12CC(=O)Nc3ccccc3N1C(c1ccccc1)=NO2 (configuration not stated)	> 100 µM	> 100 µM	> 100 µM	> 100 µM	> 100 µM	> 100 µM	> 100 µM	> 100 µM	> 100 µM	> 100 µM	> 100 µM	> 100 µM		> 100 µM	> 100 µM	> 100 µM	> 100 µM
Cn1c(=Nc2ccc(Cl)cc2)sc2ccccc21	> 100 µM	65.7 µM	> 100 µM		> 100 µM	> 100 µM	> 100 µM	81.3 µM	> 100 µM	> 100 µM	> 100 µM	> 100 µM	> 100 µM		> 100 µM	> 100 µM	> 100 µM
CC(=O)C(C(=O)c1ccc(C)cc1)[C@H]1OC(C)(C)O[C@H]1[C@H]1COC(C)(C)O1 (some centres not stated)	18.4 µM	31.6 µM		14.4 µM	13.2 µM	9.52 µM	6.3 µM	18.7 µM	12.8 µM	12.5 µM	9.35 µM	18.9 µM	8.16 µM	6.63 µM	9.17 µM	17.3 µM	9.55 µM
CC1(C)OCC(C2OC3OC(C)(C)OC3C2c2ccccc2)O1 (configuration not stated)	> 100 µM	> 100 µM	50 µM	93.9 µM	> 100 µM	64.8 µM	> 100 µM	54 µM		87.1 µM	> 100 µM	> 100 µM	> 100 µM	> 100 µM	98.7 µM	> 100 µM	93.5 µM
